Laboratory results taken from a melting point compilation (Tetko et al.; mined from patent text by program, amines drawn as free bases though some values may be those of a salt).

| Structure (SMILES) | melting point [°C] |
| --- | --- |
| COc1ccc(-c2cnn3c(N)c(-c4cccc(Cl)c4)c(C)nc23)cc1 | 171 to 172 |
| COc1ccc(C(C)=O)cc1S(N)(=O)=O | 200 to 201 |
| COc1ccc(C2OC(=O)N3CC(=O)CCC23)cc1OC (stereo not drawn) | 180 |
| Cc1cccc(C)c1N(CCC(C)N1C(=O)c2ccccc2C1=O)S(C)(=O)=O (stereo not drawn) | 148 to 152 |
| COc1cc(CN2CCc3cc(OCc4ccccc4)c(OC)cc3C2)cc(OC)c1 | 95 to 96 |
| CCCC(=O)c1cnc2c(OC)cccc2c1Cl | 114 to 116 |
| CC(C)(C)OC(=O)Nc1ncc(C=O)s1 | 173 to 175 |
| COC(=O)c1ccc(NS(=O)(=O)c2cc(OCC(F)(F)F)cc(OCC(F)(F)F)c2)cn1 | 158 to 160 |
| O=C1CCC(N2C(=O)c3ccc(CNC(=O)c4ccc(Cl)cc4)cc3C2=O)C(=O)N1 (stereo not drawn) | 178 to 180 |
| CCOC(=O)C1=Cc2cc(C(=O)Cc3ccccc3)ccc2OC1C(F)(F)F (stereo not drawn) | 136 to 138 |
| COc1ccc(NN=C(Sc2ccc(OC)cc2)C(C)=O)cc1 | 126 to 128 |
| CC(O)C(=O)c1ccc(C(=O)Nc2ccccc2N)c(N)c1 (stereo not drawn) | 198 |
| O=[N+]([O-])c1ccccc1SC1SCC(O)C(O)C1O (stereo not drawn) | 185 |
| CC(O)c1cccc(S(N)(=O)=O)c1 (stereo not drawn) | 137 to 139 |
| CC(C)(C)NC(=O)[C@@H]1C[C@H](Cl)CN1C(=O)[C@@H](O)[C@H](Cc1ccccc1)N(Cc1ccccc1)Cc1ccccc1 | 64 to 67 |
| CNC(=S)NC1CCCc2cc(C)cnc21 (stereo not drawn) | 113 |
| Cc1cc(N2CCC(N3CCCC3C)C2)ccc1C(=O)NC1CCOCC1 (stereo not drawn) | 147 |
| CC(=O)Nc1cccc(OCc2ccccc2)c1C | 142 to 143 |
| CC1OC(n2cc(F)c(NC(=O)OC3CCCCC3)nc2=O)C(O)C1O (stereo not drawn) | 134 to 136 |
| CC(C)(C)c1ccc(N2CC(COC(=O)c3ccccc3C(=O)O)CC2=O)cc1 (stereo not drawn) | 155 to 157 |
| CC(C)C(c1ccc(N)cc1)c1cccnc1 (stereo not drawn) | 102 |
| CC(=O)Nc1ccc(N2CCN(c3ccc(OCC(O)(Cn4cncn4)c4ccc(Cl)cc4Cl)cc3)CC2)cc1 (stereo not drawn) | 169 to 171 |
| NC(=S)c1ccc(O)cc1O | 164 to 166 |
| CC1(CNC(=O)CC2CN=C(c3cc4cc(Oc5ccc(S(C)(=O)=O)nc5)cc(OC5CCOCC5)c4[nH]3)S2)COC1 (stereo not drawn) | 189 to 190 |
| COc1ccc(-c2cn(C)cc(-c3ccccc3)c2=O)cc1C | 157 to 160 |

| Structure (SMILES) | melting point [°C] |
| --- | --- |
| COCCOc1ccc(COC(=O)NS(=O)(=O)CCC(C)C)c(Oc2ncc(C(F)(F)F)cc2Cl)c1 | 122 to 124 |
| Cc1cc(C)c2cc(-c3ccccc3)c(=O)[nH]c2n1 | 258 to 260 |
| N#Cc1ccc2nc(C(=O)NCc3ccnc(OCC4CCOC4)c3)[nH]c(=O)c2c1 (stereo not drawn) | 230 to 233 |
| CCCCNC(=O)Oc1ccc2c(c1)c(C)cn2NCCCc1ccncc1F | 83 to 84 |
| CN(C)CCCOC(=O)c1cccc2c(-c3ccccc3)c([N+](=O)[O-])oc12 | 65.5 to 67.5 |
| O=C(N[C@H]1CCC[C@@H]1O)C(O)=CC(=O)c1cc(Cc2ccc(F)cc2F)cn(Cc2ccc(F)cc2)c1=O | 85 to 86 |
| CCOC(=O)c1cn(CC)c2cc(NC(C)=O)c(F)cc2c1=O | 177 to 180 |
| O=C(O)Cc1cc(C=Cc2ccc(C(=O)O)cc2)ccc1O | > 260 |
| CC(C)C(=O)N[C@@H](CS)C(=O)NCCSC(=O)C(C)C | 125 to 127 |
| O=S(c1ccccc1-c1ccccc1)C(F)(F)C(F)(F)C(F)(F)C(F)(F)C(F)(F)C(F)(F)C(F)(F)C(F)(F)F (stereo not drawn) | 62 to 63 |
| Cc1ccc(-c2nc3cccnc3n2CC(=O)O)s1 | > 250 |
| COC(=O)c1ccc(SC)cn1 | 71 to 73 |
| CCC(C#N)=C1CCN(c2ccc(N3C[C@H](CNC(=O)C(Cl)(Cl)Cl)OC3=O)cc2F)CC1 | 150 to 152 |
| CCOC(=O)Cn1c(=O)c(=O)[nH]c2cc(C(F)(F)F)c(-n3ccc(C=NOCc4ccccc4)c3)cc21 | 142 to 147 |
| OC1(c2ccccc2Cc2cc(F)ccc2F)CCN(Cc2ccccc2)CC1 | 143 to 146 |
| COc1ccc(C(C#Cc2ccccc2)Cc2noc(C(F)(F)F)n2)cc1OC1CCCC1 (racemic) | 96 to 98 |
| Cc1c(CO)ncn1C(c1ccccc1)(c1ccccc1)c1ccccc1 | 255 to 260 |
| Fc1cc(-c2ncon2)ccc1CBr | 87.3 |
| CNC(=O)c1ccncc1I | 132 to 133 |
| CCOC(=O)C(C#N)=CNc1ccc(CC)cn1 | 155 to 156 |
| CCCCCCCCCCc1ccc2c(c1)C(=O)C(=COC(=O)c1ccccc1)CC2 | 64 to 66 |
| Clc1ccc2c(Br)ccnc2c1 | 102 to 103 |
| Cc1oc(-c2ccccc2)nc1COc1ccc(Cn2cc(/C=C/C(=O)O)c(-c3ccccc3)c2)cc1 | 154 to 155 |
| Cc1cccc(C(=NO)c2ccc(OCCOc3ccc(C(=NO)c4cccc(C)c4)cc3)cc2)c1 | 151 to 153 |
| CCOC(Cc1ccc(NCc2ccc(O)cc2)cc1)C(=O)OC (stereo not drawn) | 109 to 110 |

| Structure (SMILES) | melting point [°C] |
| --- | --- |
| CNC(=O)CN1CCc2ccc(Nc3ncc(Cl)c(Nc4ccc(N5CCOCC5)cc4OC)n3)cc2CC1 | 169 to 176 |
| Clc1ccc(CN2CC=C(/C=C/c3ccc4c(c3)OCO4)CC2)cc1 | 122 to 124 |
| COc1cc2c(cc1OCc1ccccc1)CC(C)(C)N=C2C | 87.9 to 90 |
| CC(CNC(=O)Nc1ccc([N+](=O)[O-])cc1O)OCc1ccccc1 (stereo not drawn) | 64.6 to 65.2 |
| CCCCc1nn(-c2cc(NC(C)=O)ccc2Cl)c(=O)n1Cc1ccc(-c2cc(CCC)ccc2S(=O)(=O)NC(=O)c2ccccc2F)cc1F | 148 to 150 |
| CS(=O)(=O)Nc1cc2c(c(C(=O)O)c1)NCCCC2 | 204 to 205 |
| CC1CCCC(C)N1S(=O)(=O)N[C@@H](Cc1ccc(NC(=O)c2c(Cl)cncc2Cl)cc1)C(=O)O (stereo partly drawn) | 162 |
| COc1ccc2[nH]c(=O)c(-c3nnn(Cc4cccc(OCc5ccc6ccccc6n5)c4)n3)cc2c1 | 213 to 214 |
| N#Cc1cccnc1N1CCN(Cc2nc3ccccc3[nH]2)CC1 | 208 to 210 |
| CCCNCCCOc1ccc(-c2ccc(C(=O)OCC)cc2)cc1-c1ccc2c(c1)C(C)(C)CCC2(C)C | 120 |
| O=C(O)c1cc(=O)cc(-c2ccccc2O)o1 | 213 to 215 |
| COC(=O)c1ccc(OC(=O)c2ccc(OC)c(C34CC5CC(CC(C5)C3)C4)c2)cc1O | 125 to 127 |
| CCN(CC)CCOC(=N)N1CCC(c2nsc3ccccc23)CC1 | 84 to 86 |
| CCOC(=O)c1nnc2ccc(NCCCN3CCC(OC(c4ccccc4)c4ccccc4)CC3)nn12 | 129 to 133 |
| COc1cc(C2C3=C(COC3=O)Nc3ccc4ncsc4c32)ccc1O (stereo not drawn) | 296 to 297 |
| COC(=O)CCc1oc(C)nc1-c1ccc(Cl)cc1 | 74 to 75 |
| COCCOC(=O)COc1cc(F)ccc1C(=O)NCc1cccc([N+](=O)[O-])c1 | 112 to 115 |
| Cc1cccc(C(=O)Nc2c[nH]nc2C(=O)NCC(F)(F)F)n1 | 257 to 258 |
| COc1ccc(CCN2CCC(C(O)(c3cccs3)c3cccs3)CC2)cc1 | 153 to 155 |
| CC(C)(C)c1cc(SCCC(=O)NCC(=O)c2ccccc2)cc(C(C)(C)C)c1O | 146 to 148 |
| Cn1cc(-c2cc(-c3ccc(N)nc3)ccn2)n(-c2ccc(C(C)(C)C#N)cc2)c1=O | 252 |
| CCC(O)(c1ccc(OCCCN2CCN(C)CC2)cc1)c1cccc(C(F)(F)F)c1 (stereo not drawn) | 129 to 130 |
| Oc1cccc(F)c1OC(COCc1ccccc1)C(Cl)COCc1ccccc1 (stereo not drawn) | 77 to 79 |
| N#Cc1cnn(-c2ccc(C(F)(F)F)cc2Cl)c1Br | 127 |
| C[C@@H](O)[C@H](NC(=O)OC(C)(C)C)C(=O)NOCc1ccccc1 | 87 |

| Structure (SMILES) | melting point [°C] |
| --- | --- |
| O=C1c2ccc(Br)cc2C(=O)c2ccc(Br)cc21 | > 280 |
| CC(Cc1cccnc1)n1nnc2cc3c(=O)n(C4CC4)nnc3cc2c1=O (stereo not drawn) | 160 to 161 |
| C=C(OCc1ccccc1)C(=O)OC | 44.5 to 45.5 |
| Cn1cnc(S(=O)(=O)N2CCSCC2)c1 | 154 to 155 |
| CCC(Oc1c(C)c(F)cc(F)c1F)C1=NCCN1 (stereo not drawn) | 99 to 101 |
| CC(C)(C)c1cc(SC(Sc2cc(C(C)(C)C)c(O)c(C(C)(C)C)c2)c2ccccc2)cc(C(C)(C)C)c1O | 122 to 124 |
| CN1CCN(c2ccc3nc(N)c(C#N)c(Cl)c3c2)CC1 | 189 |
| CSc1ccc(-c2nn(Cc3ccc(F)cc3)c(=O)cc2-c2ccc(F)cc2)cc1 | 156 |
| Cc1ccc(C)n1CCC1SCCC(=O)NC1C(N)=O (stereo not drawn) | 181 to 183 |
| COc1ccc(S(=O)(=O)c2cnoc2C(C)C)cc1 | 62 to 63.5 |
| CCCCC(=O)Nc1ccn(C2OC(CO)C(O)C2O)c(=O)n1 (stereo not drawn) | 132 to 135 |
| CC(=O)Nc1ccc2ccccc2c1-c1c(P(c2ccccc2)c2ccccc2)ccc2ccccc12 | 105 |
| Cc1sc(-c2ccccc2)nc1COc1ccc(CCl)cn1 | 78 to 79 |
| Cn1nc(N)nc1NCCCOc1cccc(CN2CCCCC2)c1 | 94 to 95 |
| Cc1cc(CCCc2ccc(CO)c(CO)c2)ccc1O | 92 |
| CNC1C(C)CN(c2c(F)c(N)c3c(=O)c(C(=O)O)cn(C4CC4)c3c2OC)CC1C (stereo not drawn) | 224 to 226 |
| Cc1oc(-c2ccccc2)nc1COc1ccc2oc(/C=C/CO)cc2c1 | 145 to 146 |
| CC(C)NC(=O)C(F)(F)C(F)(F)F | 54 to 56 |
| COc1ccc(C2(C#N)CCC(NS(C)(=O)=O)CC2)c2c1oc1ccccc12 (stereo not drawn) | 176 to 178 |
| CCCc1c(OCCCCCCc2cc(C)c(O)c(O)c2C)ccc(C(=O)OCC)c1O | 61 to 64 |
| C=C(c1c(C#N)nn(-c2c(Cl)cc(C(F)(F)F)cc2Cl)c1N)C(F)(F)F | 147 to 148 |
| CCc1oc2ccccc2c1C(=O)N(Cc1ccccc1)Cc1ccc2c(Br)c(OCC#N)ccc2c1 | 92 to 100 |
| CCOC(=O)CCCC(=O)c1ccc(Oc2ccccc2)cc1 | 61 to 62 |
